Experimental data: paper PMC3914206

Experiments:
Format in all cases: binding
Set-up in all cases: KINOMEscan: ABL1(F317L)-phosphorylated / KINOMEscan: ABL1(H396P)-nonphosphorylated / KINOMEscan: ABL1(H396P)-phosphorylated / KINOMEscan: ABL1(M351T)-phosphorylated / KINOMEscan: ABL1(T315I)-phosphorylated / KINOMEscan: ABL1-nonphosphorylated / KINOMEscan: ABL1-phosphorylated / KINOMEscan: ACVR2A / KINOMEscan: ACVR2B / KINOMEscan: ADCK3 / KINOMEscan: ADCK4 / KINOMEscan: AKT1 / KINOMEscan: AKT3 / KINOMEscan: ALK / KINOMEscan: ARK5 / KINOMEscan: AURKA / KINOMEscan: AURKC / KINOMEscan: BIKE / KINOMEscan: BMPR1A / KINOMEscan: BMPR1B / KINOMEscan: BMX / KINOMEscan: BRK / KINOMEscan: BRSK1 / KINOMEscan: BRSK2 / KINOMEscan: CAMK1 / KINOMEscan: CAMK1D / KINOMEscan: CAMK1G / KINOMEscan: CAMK2A / KINOMEscan: CAMK2B / KINOMEscan: AAK1 / KINOMEscan: CAMK2D / KINOMEscan: CAMK2G / KINOMEscan: ABL1(F317I)-nonphosphorylated / KINOMEscan: ABL1(F317I)-phosphorylated / KINOMEscan: ABL1(F317L)-nonphosphorylated: unit: % Ctrl
panel of 442 kinases [1] = target: T1, panel of 442 kinases (Homo sapiens, UniProt P42684); details: Compound Concentration 10 µM
T1 construct: purchased KINOMEscan
T1 sequence (P42684 whole entry): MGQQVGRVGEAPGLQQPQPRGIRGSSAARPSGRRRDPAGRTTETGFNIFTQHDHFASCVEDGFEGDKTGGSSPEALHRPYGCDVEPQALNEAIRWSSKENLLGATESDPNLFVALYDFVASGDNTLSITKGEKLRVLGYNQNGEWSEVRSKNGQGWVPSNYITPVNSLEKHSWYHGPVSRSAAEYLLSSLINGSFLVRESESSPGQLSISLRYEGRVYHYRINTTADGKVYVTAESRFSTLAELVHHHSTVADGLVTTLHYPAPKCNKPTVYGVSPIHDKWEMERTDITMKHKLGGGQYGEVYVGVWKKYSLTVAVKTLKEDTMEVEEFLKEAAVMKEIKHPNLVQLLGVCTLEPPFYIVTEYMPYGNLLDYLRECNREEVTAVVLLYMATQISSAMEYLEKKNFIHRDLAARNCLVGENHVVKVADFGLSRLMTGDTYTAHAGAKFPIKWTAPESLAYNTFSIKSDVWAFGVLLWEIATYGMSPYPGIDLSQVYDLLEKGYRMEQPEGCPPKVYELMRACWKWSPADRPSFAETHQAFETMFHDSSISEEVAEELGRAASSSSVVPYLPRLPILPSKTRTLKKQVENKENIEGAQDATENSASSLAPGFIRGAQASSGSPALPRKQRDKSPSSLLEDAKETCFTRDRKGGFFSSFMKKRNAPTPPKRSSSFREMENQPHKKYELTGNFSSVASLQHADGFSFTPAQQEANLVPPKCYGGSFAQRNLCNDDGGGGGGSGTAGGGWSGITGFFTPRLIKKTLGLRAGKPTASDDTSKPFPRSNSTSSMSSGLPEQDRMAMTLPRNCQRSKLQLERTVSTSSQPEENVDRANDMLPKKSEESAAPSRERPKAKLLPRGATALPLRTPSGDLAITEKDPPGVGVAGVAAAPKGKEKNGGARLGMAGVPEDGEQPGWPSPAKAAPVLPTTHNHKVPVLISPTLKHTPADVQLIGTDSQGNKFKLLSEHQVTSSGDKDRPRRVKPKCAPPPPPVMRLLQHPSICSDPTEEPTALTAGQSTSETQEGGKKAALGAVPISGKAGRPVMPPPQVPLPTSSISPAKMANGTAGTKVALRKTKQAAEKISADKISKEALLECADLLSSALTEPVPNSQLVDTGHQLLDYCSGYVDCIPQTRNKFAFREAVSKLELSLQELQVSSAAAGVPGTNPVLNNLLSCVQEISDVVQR
Excerpt: (§1) We assessed the selectivity of members of this scaffold using the KINOMEscan methodology across a near comprehensive panel of 442 kinases [[18,27]].

panel of 442 kinases [2] = target: T2, panel of 442 kinases (Homo sapiens, UniProt P45983); details: Compound Concentration 10 µM
T2 construct: purchased KINOMEscan
T2 sequence (P45983 whole entry): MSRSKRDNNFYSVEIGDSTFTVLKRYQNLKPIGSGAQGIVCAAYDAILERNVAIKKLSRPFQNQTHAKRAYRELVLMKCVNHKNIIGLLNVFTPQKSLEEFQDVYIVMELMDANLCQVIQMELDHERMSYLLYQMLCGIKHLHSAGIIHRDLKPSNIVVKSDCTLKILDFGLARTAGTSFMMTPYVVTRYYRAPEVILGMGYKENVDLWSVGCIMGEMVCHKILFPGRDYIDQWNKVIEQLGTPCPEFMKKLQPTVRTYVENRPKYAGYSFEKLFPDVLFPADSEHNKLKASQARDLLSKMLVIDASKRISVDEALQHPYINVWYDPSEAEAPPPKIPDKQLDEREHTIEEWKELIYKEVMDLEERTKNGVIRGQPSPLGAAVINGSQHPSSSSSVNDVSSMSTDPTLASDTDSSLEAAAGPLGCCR
Excerpt: as §1

panel of 442 kinases [3] = target: T3, panel of 442 kinases (Homo sapiens, UniProt Q13554); details: Compound Concentration 10 µM
T3 construct: purchased KINOMEscan
T3 sequence (Q13554 whole entry): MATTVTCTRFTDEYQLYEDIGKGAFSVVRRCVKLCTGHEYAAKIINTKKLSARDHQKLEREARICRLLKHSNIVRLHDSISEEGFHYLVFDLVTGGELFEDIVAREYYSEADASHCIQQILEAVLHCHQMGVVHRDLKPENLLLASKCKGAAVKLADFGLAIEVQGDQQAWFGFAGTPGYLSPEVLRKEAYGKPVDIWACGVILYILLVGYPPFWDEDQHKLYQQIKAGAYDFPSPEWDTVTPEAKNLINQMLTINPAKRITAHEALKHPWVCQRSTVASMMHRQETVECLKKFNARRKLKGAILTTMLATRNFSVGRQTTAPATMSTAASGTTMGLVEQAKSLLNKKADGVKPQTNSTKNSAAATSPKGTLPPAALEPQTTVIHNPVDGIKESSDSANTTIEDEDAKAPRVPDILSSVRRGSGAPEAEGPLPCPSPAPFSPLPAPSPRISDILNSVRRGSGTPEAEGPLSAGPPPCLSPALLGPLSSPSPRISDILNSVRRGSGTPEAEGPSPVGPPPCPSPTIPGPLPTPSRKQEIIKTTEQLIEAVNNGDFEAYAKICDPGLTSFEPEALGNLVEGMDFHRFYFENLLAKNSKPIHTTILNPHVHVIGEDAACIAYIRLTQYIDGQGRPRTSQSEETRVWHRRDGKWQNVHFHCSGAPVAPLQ
Excerpt: as §1

panel of 442 kinases [4] = target: T4, panel of 442 kinases (Homo sapiens, UniProt Q16288); details: kinase TRKC; compound concentration 10 µM
T4 construct: purchased KINOMEscan
T4 sequence (Q16288 32-839): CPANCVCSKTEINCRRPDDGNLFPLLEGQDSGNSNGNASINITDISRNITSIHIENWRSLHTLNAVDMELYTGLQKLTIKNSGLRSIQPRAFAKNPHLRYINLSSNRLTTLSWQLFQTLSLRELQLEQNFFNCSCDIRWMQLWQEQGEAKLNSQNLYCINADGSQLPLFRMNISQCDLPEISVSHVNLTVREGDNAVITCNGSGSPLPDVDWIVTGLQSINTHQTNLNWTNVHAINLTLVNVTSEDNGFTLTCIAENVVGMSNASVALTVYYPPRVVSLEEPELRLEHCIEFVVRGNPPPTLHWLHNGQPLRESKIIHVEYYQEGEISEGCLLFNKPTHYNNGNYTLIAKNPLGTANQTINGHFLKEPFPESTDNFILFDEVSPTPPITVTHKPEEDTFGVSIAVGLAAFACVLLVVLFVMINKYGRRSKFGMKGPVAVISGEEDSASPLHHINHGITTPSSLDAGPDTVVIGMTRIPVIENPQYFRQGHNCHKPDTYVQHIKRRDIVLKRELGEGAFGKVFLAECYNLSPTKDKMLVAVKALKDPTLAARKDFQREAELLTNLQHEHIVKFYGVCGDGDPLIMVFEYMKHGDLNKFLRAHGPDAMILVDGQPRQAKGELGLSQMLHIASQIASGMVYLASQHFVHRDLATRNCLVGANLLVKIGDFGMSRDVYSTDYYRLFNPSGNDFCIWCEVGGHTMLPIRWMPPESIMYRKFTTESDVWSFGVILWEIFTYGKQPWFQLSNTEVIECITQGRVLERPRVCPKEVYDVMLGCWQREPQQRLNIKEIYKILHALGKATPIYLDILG
Excerpt: as §1

Q: `COc1cc(C(=O)N2CCC(N3CCN(C)CC3)CC2)ccc1Nc1ncc2c(n1)N(C)c1ccccc1C(=O)N2C` [15 (LRRK2-IN-1)] was tested. Which “KINOMEscan: ABL2” value (panel of 442 kinases [1]) did it give?
A: 97

Q: And the “KINOMEscan: JNK1” value (panel of 442 kinases [2])?
A: 95

Q: What about the “KINOMEscan: CAMK2B” value (panel of 442 kinases [3]) of the same compound?
A: 62

Q: What about the “% Ctrl, TRKC” value (panel of 442 kinases [4]) of the same compound?
A: 100 % Ctrl

Q: Which results are given for `COc1cc(C(=O)N2CCC(N3CCN(C)CC3)CC2)ccc1Nc1ncc2c(n1)N1CCc3cccc(c31)C(=O)N2C` [Compound 24]?
A: KINOMEscan: JNK1 (panel of 442 kinases [2]): 63; KINOMEscan: CAMK2B (panel of 442 kinases [3]): 62; % Ctrl, TRKC (panel of 442 kinases [4]): 100 % Ctrl

Q: For `COc1cc(C(=O)N2CCC(N3CCN(C)CC3)CC2)ccc1Nc1ncc2c(n1)N(C1CCCC1)c1ccccc1C(=O)N2C` [Compound 25, 11-cyclopentyl-2-((2-methoxy-4-(4-(4-methylpiperazin-1-yl)piperidine-1-carbonyl)phenyl)amino)-5-methyl-5H-benzo[e]pyrimido[5,4-b][1,4]diazepin-6(11H)-one], which “KINOMEscan: ABL2” value (panel of 442 kinases [1]) is on record?
A: 100

Q: What about the “KINOMEscan: JNK1” value (panel of 442 kinases [2]) of the same compound?
A: 38

Q: And the “KINOMEscan: CAMK2B” value (panel of 442 kinases [3])?
A: 80

Q: And the “% Ctrl, TRKC” value (panel of 442 kinases [4])?
A: 100 % Ctrl

Q: Which “KINOMEscan: ABL2” value (panel of 442 kinases [1]) does the source give for `CCOc1cc(C(=O)N2CCC(N3CCN(C)CC3)CC2)ccc1Nc1ncc2c(n1)N(C1CCCC1)c1ccccc1C(=O)N2C` [Compound 26] here?
A: 100

Q: And the “KINOMEscan: JNK1” value (panel of 442 kinases [2])?
A: 76

Q: What about the “KINOMEscan: CAMK2B” value (panel of 442 kinases [3]) of the same compound?
A: 78

Q: What about the “% Ctrl, TRKC” value (panel of 442 kinases [4]) of the same compound?
A: 90 % Ctrl
